Data on four compounds can be found in US20250122164A1, “N,N-[…] ANALOGS FOR TREATING BRAIN DISORDERS” (The Regents of the University of California, priority 2021, published 2025).

A short description of series [1]: Cued fear conditioning / fear extinction. Conditions: for fear extinction test curve vs vehicle: 12.5 and 25 mg/kg curves; for freezing during extinction training (day 2): 12.5 and 25 mg/kg i.p. 30-min before extinction training; for conditioned freezing on extinction testing day (24-hours later, drug-free): treatment i.p. 30-min before extinction training on day 2, 16 CS tones. Format: in vivo, mice. An excerpt:
Mice were exposed to cued fear conditioning on day 1, fear extinction training on day 2 and extinction testing on Day 3. Mice were habituated to handling for 3 days before experimentation. On the day of the experiment mice were allowed to habituate to the behavior room for 1-hour before beginning the experiment. 15-minutes before starting the experiment, mice were separated out into individual holding cages.
Cued fear conditioning consisted of six pairings of a CS auditory cue (80-85 dB white noise, 15 s) and a co-terminating US footshock (0.85 mA and 2 s), each spaced 1.5 minutes apart. The fear conditioning apparatus (Med Associates model #MED-VFC2-SCT-R) consisted of a 30.5 cm×24.1 cm×21 cm internal soundproof chamber, with metal grated floors, an infrared camera, a sound generator, and a light source. Mice were initially placed in the conditioning apparatus and the first 1.5 minutes were stimulus free. After the last shock, the animals remained in the chambers for an additional 2 min before being returned to their home cages. […] Freezing responses for fear conditioning (day 1) are presented as the percentage of time spent freezing during the last 1.5 minutes after the last shock. The apparatus was cleaned with 70% EtOH in between trials.
Cued fear memory was assessed by exposing the animals to a novel context (lights off, A-frame insert, smooth plastic floor insert, additional vanilla odor) for 2 min prior to 16 presentations of auditory cues (80 dB white noise, 15 s) spaced 15 s apart. Freezing responses for cue testing (day 2 and 3) are presented as the percentage of time spent freezing during the tone presentations. The procedure was repeated on day 3 in the absence of drug.
Fear conditioning experiments were performed between the hours of 08:00-11:00. Freezing behavior was scored using Med Associates Video Freeze software v2.25 (motion threshold=100 au, detection method=linear, minimum freeze duration=15 frames, which is equal to a 0.5 s freeze). The apparatus was cleaned with 70% EtOH in between trials on day 1 and Sani-cloth gemicidal disposable cloths (PDI, Q89072) were used to clean the apparatus on days 2 and 3.

Series [2] concerns rat cortical neurons. The series is described as follows: Dendritogenesis (Sholl analysis) in cultured cortical neurons. It is filed as cell-based. Conditions: for dendritic complexity (Sholl analysis, Nmax): DIV 6 rat cortical cultures, 72-hours treatment, 10 uM and 100 nM, vs VEH; for dendritogenesis effect after ketanserin pretreatment: KTSN added 30 minutes before, 10-fold excess, DIV 6, 72-hours; for dendritic arbor complexity (Sholl analysis): increasing concentrations, efficacy in the nanomolar range. The procedure: For the dendritogenesis experiments conducted using cultured cortical neurons, E18 timed pregnant Sprague Dawley rats were obtained from Charles River Laboratories. Full culturing, staining and analysis experiments were performed as previously described with the exception that there was no media change during treatments. Dendrites were visualized using a chicken anti-MAP2 antibody (1:10,000; EnCor, CPCA-MAP2) as previously reported. DMSO and ketamine […] were used as vehicle and positive controls, respectively. For blocking experiments, ketanserin was added 30-minutes prior to addition of agonists in 10-fold excess.
(§1) Statistical Analysis. Appropriate samples sizes were estimated based on our previous experiences performing similar experiments. Treatments were randomized, and data were analyzed by experimenters blinded to treatment conditions. All comparisons were planned prior to performing each experiment. Statistical analyses were performed using GraphPad Prism (v.8.1.2). Data are represented as mean±s.e.m., unless otherwise noted, with asterisks indicating *P<0.05, **P<0.01, ***P<0.001 and ****P<0.0001.

Series [3] concerns 5-HT2A biosensor. Put plainly: psychLight 5-HT2A biosensor in cultured cortical neurons. It is filed as cell-based. Conditions: DIV 10-14 rat cortical neurons, 10 uM, vs vehicle. The procedure: E18 rat cortical neurons were plated at 60,000 cells/well in glass 96-well plates (P96-1.5H-N, Cellvis) coated with poly-D-lysine (Sigma, P6407-5MG). At day in vitro (DIV) 3-7 neurons were infected with AAV9_hSynapsin_psychLight2 (Neurophotonics-Viral Vector Core) or AAV9-hsyn-GRAB_5-HT1.0 (Addgene, 140552-AAV9) at an MOI of 70,000. Neurons were kept in the incubator for one week to allow for viral expression. On imaging day (DIV 10-14), media was aspirated and wells were washed (1×200 μL) with HBSS supplemented with 2 mM MgCl2 and 2 mM CaCl2. 50 μL HBSS was added to the wells of the assay plate and then imaged on a CellInsight CX7 HCA Platform (Thermo Fisher, CX7A1110) configured with a onstage incubator for live cell imaging (Thermo Fisher, NX7LIVE001) at 40×(N.A.=0.60) with 25 regions of interest (ROI) taken per well using an arbitrary ROI pattern for each well with no bias to location and no overlap of the ROIs (exposure=400 ms, LED power=100%). […]
Images were then analyzed using ImageJ by selecting ROIs surrounding individual neuronal cell bodies of the post-treatment images and recording the mean fluorescence, the same ROIs were applied to the pretreatment images to record the mean fluorescence. The […] values were calculated as previously reported.

Series [4] deals with rat cortical neurons. Put plainly: Spinogenesis (dendritic spine density) in mature cortical cultures. Format: cell-based. Conditions: for dendritic spine density: DIV 15 rat cortical neurons, 24-hours treatment; for spinogenesis effect after ketanserin pretreatment: KTSN 30-minute pretreatment, 10-fold excess, DIV 15, 24-hours. The procedure:
Spinogenesis experiments were performed as previously described with the exception that cells were treated at DIV14 instead of DIV18 and then fixed on DIV15. The images were taken on a Nikon HCA Confocal microscope a with a 100x/NA 1.45 oil objective. DMSO and ketamine […] were used as vehicle and positive controls, respectively. For blocking experiments, ketanserin was added 30-minutes prior to addition of agonists in 10-fold excess.
as §1

Series [5] is described as follows: Head-twitch response (HTR) assay. It is filed as in vivo, mice. The conditions noted are these: first 20-minutes in novel arena; 12.5, 25, 50 mg/kg i.p. The method, then: (§2) The head-twitch response assay was performed as described previously using both male and female C57BL/6J mice (3 each per treatment). The mice were obtained from Jackson Laboratory and were approximately 9 weeks old at the time of the experiments. Before injecting the mice, their baseline temperature was measured using an IR thermometer as described. Compounds were administered via intraperitoneal (i.p.) injection (5 ml kg-1) using 0.9% saline as the vehicle. Immediately after the animals were placed in an arena for 30-minutes where their locomotor activity was assessed using AnyMaze automated tracking software. The behavior was also videotaped and later scored by two blind overserves for head-twitch responses, the results were averaged. Upon completion of the novelty induced locomotion assay their temperature was measured at the 30-minute mark. The mice were then transferred to a holding cage with their other treatment matched cage mates and their temperature was measured at the 90 and 120-minute mark.

Series [6] is described as follows: Novelty induced locomotion (NIL) test. The conditions noted are these: for locomotion at the lower doses: 12.5 mg/kg and 25 mg/kg; for locomotion at highest dose: 50 mg/kg i.p., vs vehicle; for locomotion (total distance) in novel arena, dose dependence / time spent in the center of the arena: 12.5, 25, 50 mg/kg i.p., 30-minutes. Format: in vivo, mice. The procedure:
as §2

A short description of series [7]: Body temperature assay (IR thermometer). Format: in vivo, mice. Conditions: for increase in body temperature (hyperthermia): 12.5, 25, 50 mg/kg i.p., measured for 2-hours. The procedure: as §2
Series [8] in a line: Tail suspension test. Conditions: i.p. injection, tested after 24 h, vs vehicle. Format: in vivo, mice. The procedure:
Male C57/BL6J mice (9-10 weeks of age at time of experiment) were obtained from the Jackson Lab and housed in a UCD vivarium. […] All experiments were carried out by the same experimenter who performed the handling. Twenty-four hours after treatments, animals were subjected to a tail suspension test. Animals were suspended from their tails approximately 16 cm from the top of the apparatus and 25 cm from the bottom of the apparatus. Behavior was video recorded for 6 min and analyzed later by an experimenter blinded to treatment conditions. Immobility was defined as the amount of time spent not struggling or attempting to generate momentum and was scored for the entire 6 min period. All TST sessions were performed between the hours of 08:00 and 13:00.

Series [9] addresses T1, SERT (Homo sapiens, UniProt P31645).
T1 construct: host or cells: HEK293T cells, transient transfection with Lipofectamine 3000
Put plainly: SERT efflux: [3H]5-HT release from SERT expressing HEK293T cells. Format: cell-based. Conditions: HEK293T cells transiently expressing SERT, 10 pM-100 uM.
Procedure: HEK293T cells were grown in Dulbecco's Modified Eagle Media (DMEM) supplemented with 10% fetal bovine serum (FBS) and 1% penicillin-streptomycin. 24 hours prior to the experiment, cells were plated in 24-well plates at a density of 150,000 cells/well and concurrently transfected using Lipofectamine 3000 according to the manufacturer's protocol. Cells were transfected with hSERT-N1-pEYFP (Addgene #70105) or a GFP control plasmid (Lonza pmaxGFP vector). The next day the wells were washed (1×500 μL) with 1× Hank's Balanced Salt Solution supplemented with 2 mM MgCl2 and 2 mM CaCl2 (HBSS) and the plate was placed on a 37° C. water bath for the remainder of the experiment. 250 μL of HBSS containing 10 nM 5-[1,2-3H[N]]-hydroxytryptamine creatinine sulfate (NET498001MC, Lot: 2902700) was added to the wells and incubated for 15 minutes, allowing uptake into SERT expressing HEK cells. Uptake was terminated by aspiration of wells followed by washes (3×500 μL) with HBSS. […] 200 μL of media was collected from each well and placed into a scintillation vial containing 1 mL PerkinElmer Ultima Gold™ scintillation cocktail to serve as the efflux fraction. […] Radioactivity in the form of disintegrations per minute (DPM) was determined the following day with the use of a Beckman LS 6000 liquid scintillation counter. […] The GFP control cells were checked to ensure radioactivity was below background levels.

Series [10] addresses T1, SERT. Conditions: other studies; cited from earlier work.
The conditions of series [11]: patients, SR-MDMA paired psychotherapy; 25% in placebo group; cited from earlier work.

“Also recorded” adds a separate entry of the source.

T1 sequence (P31645 whole entry): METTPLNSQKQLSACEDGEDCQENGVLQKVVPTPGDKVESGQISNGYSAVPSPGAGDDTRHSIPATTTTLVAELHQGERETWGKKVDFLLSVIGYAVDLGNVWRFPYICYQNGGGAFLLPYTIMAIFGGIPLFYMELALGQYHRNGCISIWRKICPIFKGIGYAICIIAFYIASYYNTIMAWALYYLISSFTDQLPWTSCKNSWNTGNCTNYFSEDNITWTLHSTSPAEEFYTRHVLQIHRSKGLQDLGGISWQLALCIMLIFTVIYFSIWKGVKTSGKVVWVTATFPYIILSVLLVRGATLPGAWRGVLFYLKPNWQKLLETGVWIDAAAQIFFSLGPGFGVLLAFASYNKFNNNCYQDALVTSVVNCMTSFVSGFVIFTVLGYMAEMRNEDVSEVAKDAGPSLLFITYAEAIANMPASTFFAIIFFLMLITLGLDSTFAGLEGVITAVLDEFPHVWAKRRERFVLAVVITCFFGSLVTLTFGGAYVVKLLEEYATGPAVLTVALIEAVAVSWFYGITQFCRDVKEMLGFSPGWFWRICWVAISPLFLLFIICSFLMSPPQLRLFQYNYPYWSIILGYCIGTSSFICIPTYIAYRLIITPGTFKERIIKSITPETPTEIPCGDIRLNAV

With “R-3,4-Methylenedioxy methamphetamine [R-MDMA, reference compound]”, in series [1], the “fear extinction test curve vs vehicle” value is on record as “statistically lower than vehicle control”; the “freezing during extinction training (day 2)” value was “decreased freezing during extinction training and testing”; the “conditioned freezing on extinction testing day (24-hours later, drug-free)” value was “decreased freezing during extinction training and testing”. In series [2], the “dendritic complexity (Sholl analysis, Nmax)” value is listed as “increases in dendritic complexity”; the “dendritogenesis effect after ketanserin pretreatment” value is reported as “blocked by ketanserin”; the “dendritic arbor complexity (Sholl analysis)” value is on record as “robustly increased dendritic arbor complexity”. Moreover, the “psychlight 5-HT2A biosensor response” value in series [3] is on record as “Neither LED nor R-MDMA induced a significant response”. In series [4], the dendritic spine density entry was “increases dendritic spine density, comparably to R-MDMA” and the “spinogenesis effect after ketanserin pretreatment” value is “KTSN blocks the spinogenesis effects”. Also, the “head twitch response (hallucinogenic potential)” value in [5] is recorded as “Neither compound elicited a significant HTR”. In series [6], the “locomotion at the lower doses” value is “neither of them altered changes in locomotion or had psychostimulant properties”; the “locomotion at highest dose” value is on record as “exhibits psychostimulant effects”; the “locomotion (total distance) in novel arena, dose dependence” value is recorded as “dose dependent increase in locomotion”; the “time spent in the center of the arena” value is “all doses decreased time spent in the center”. Besides, in series [7], the “increase in body temperature (hyperthermia)” value is reported as “Neither compound induced any increases in body temperature”.

Take `C[C@H](Cc1ccc2c(c1)OCO2)N(C)C` [LED, (R)-1-(benzo[d][1,3]dioxol-5-yl)-N,N-dimethylpropan-2-amine]: in series [1], the “fear extinction test curve vs vehicle” value is “statistically lower than the vehicle control curve”; the “freezing during extinction training (day 2)” value was “neither dose influenced freezing during extinction training”; the “conditioned freezing on extinction testing day (24-hours later, drug-free)” value is listed as “the 12.5 mg/kg dose of LED resulted in reduced freezing on testing day”. Besides, in series [1] (separated by sex, females), the “fear extinction, females only” value is given as “females display enhanced extinction with the 12.5 mg/kg dose”. In series [1] (separated by sex, males), the “fear extinction, males only” value is listed as “males display enhanced extinction with the 25 mg/kg dose”. Further, the “antidepressant behavioral effect (tail suspension test immobility)” value in [8] is “produces antidepressant behavioral effects”. For the same compound, in series [2], the “dendritic complexity (Sholl analysis, Nmax)” value was “increases in dendritic complexity”; the “dendritogenesis effect after ketanserin pretreatment” value was “blocked by ketanserin”; the “dendritic arbor complexity (Sholl analysis)” value is given as “robustly increased dendritic arbor complexity”. Moreover, the “promotion of plasticity (Sholl analysis), comparison of enantiomers and racemates” value in series [2] (cultured cortical neurons, FIG. 5, listed as R-MDDMA) is listed as “more effect at promoting plasticity than either the S-enantiomer or the racemic mixture; also recorded: more effective than racemic MDMA”. Besides, in series [3], the “psychlight 5-HT2A biosensor response” value is on record as “Neither LED nor R-MDMA induced a significant response”. In addition, in series [4], the dendritic spine density entry is “increases dendritic spine density” and the “spinogenesis effect after ketanserin pretreatment” value is “KTSN blocks the spinogenesis effects”. Moreover, the “[3H]5-HT release (efflux)” value in series [9] is “failed to induce [^3H]5-HT release”. Further, the “head twitch response (hallucinogenic potential)” value in series [5] is on record as “Neither compound elicited a significant HTR”. In addition, in series [6], the “locomotion at the lower doses” value is “neither of them altered changes in locomotion or had psychostimulant properties”; the “locomotion at highest dose” value is listed as “significant decrease in locomotion”; the “locomotion (total distance) in novel arena, dose dependence” value is “dose dependent decrease in locomotion”; the “time spent in the center of the arena” value was “only the highest doss caused a decrease in time spent in the center”. Besides, the “body temperature relative to vehicle” value in [7] (50 mg/kg i.p., 30-minute time point) is given as “significant decrease in temperature”. Also, the “increase in body temperature (hyperthermia)” value in series [7] is “Neither compound induced any increases in body temperature”.

Regarding `CC(Cc1ccc2c(c1)OCO2)N(C)C` (racemic) [racemic version of LED], in series [10], the “5-HT uptake inhibition and release” value is reported as “moderate ability to inhibit uptake of 5-HT as well as promote its release”.

For `CNC(C)Cc1ccc2c(c1)OCO2` (racemic) [SR-MDMA, S,R(+/−)-3,4-methylenedioxymethamphetamine], in series [11], the “response rate in decreasing the symptoms of PTSD” value is 83%.
